Several values for one entry are separate records, joined by “and”; a condition that tells them apart may be missing. Identical values can stand only once.
Key:
Conditions in all cases: incubation time: 72 h
[1] = test system: BT-474; test: drug sensitivity score (DSS), CellTiter-Blue viability (DSS (AUC-based score)); higher = stronger viability inhibition; extreme values may be limits of the assay
Protocol: (§1)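 DSRT with the CellTiter-Blue (resazurin reduction) viability readout, fluorescence 560/590 nm, 72 h incubation. Plates were normalised to DMSO and benzethonium chloride controls. DSS is computed from the area under the fitted dose-response curve (5 or 9 concentrations).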

[2] = test system: BT-549; test: as above
Protocol: as §1

[3] = test system: CAL-120; test: as above
Protocol: as §1

[4] = test system: CAL-148; test: as above
Protocol: as §1

[5] = test system: CAL-51; test: as above
Protocol: as §1

[6] = test system: CAL-85-1; test: as above
Protocol: as §1

[7] = test system: DU-4475; test: as above
Protocol: as §1

[8] = test system: HCC1143; test: as above
Protocol: as §1

[9] = test system: HCC1599; test: as above
Protocol: as §1

[10] = test system: HCC1937; test: as above
Protocol: as §1

[11] = test system: HDQ-P1; test: as above
Protocol: as §1

[12] = test system: Hs578T; test: as above
Protocol: as §1

[13] = test system: MDA-MB-231; test: as above
Protocol: as §1

[14] = test system: MDA-MB-436; test: as above
Protocol: as §1

[15] = test system: MDA-MB-453; test: as above
Protocol: as §1

[16] = test system: MDA-MB-468; test: as above
Protocol: as §1

[17] = test system: MFM-223; test: as above
Protocol: as §1

[18] = test system: SK-BR-3; test: as above
Protocol: as §1

[19] = test system: CAL-120; test: drug sensitivity score (DSS), CellTox Green (DSS (AUC-based score)); higher = stronger drug effect (viability inhibition or cytotoxicity); extreme values may be limits of the assay
Procedure, shortened: (§2)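 Compound was dispensed into 384-well plates at 5 concentrations in 10-fold steps spanning a 10,000-fold range chosen for each compound, and 20 µl of breast cancer cell suspension was added before 72 h of incubation. CellTox Green fluorescence was read at 485/520 nm, followed by CellTiter-Glo luminescence after 10 min at room temperature. Values on each plate were normalised to 0.1 % DMSO and a positive kill control. The drug sensitivity score came from the area under the fitted dose-response curve.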

[20] = test system: CAL-85-1; test: as above
Procedure, shortened: as §2

[21] = test system: HDQ-P1; test: as above
Procedure, shortened: as §2

[22] = test system: Hs578T; test: as above
Procedure, shortened: as §2

[23] = test system: MDA-MB-231; test: as above
Procedure, shortened: as §2

[24] = test system: MDA-MB-436; test: as above
Procedure, shortened: as §2

[25] = test system: MDA-MB-453; test: as above
Procedure, shortened: as §2

[26] = test system: MDA-MB-468; test: as above
Procedure, shortened: as §2

Structure (SMILES) | drug sensitivity score [1] | drug sensitivity score [2] | drug sensitivity score [3] | drug sensitivity score [4] | drug sensitivity score [5] | drug sensitivity score [6] | drug sensitivity score [7] | drug sensitivity score [8] | drug sensitivity score [9] | drug sensitivity score [10] | drug sensitivity score [11] | drug sensitivity score [12] | drug sensitivity score [13] | drug sensitivity score [14] | drug sensitivity score [15] | drug sensitivity score [16] | drug sensitivity score [17] | drug sensitivity score [18] | drug sensitivity score [19] | drug sensitivity score [20] | drug sensitivity score [21] | drug sensitivity score [22] | drug sensitivity score [23] | drug sensitivity score [24] | drug sensitivity score [25] | drug sensitivity score [26]
CO[C@@]12[C@H](COC(N)=O)C3=C(C(=O)C(C)=C(N)C3=O)N1C[C@@H]1N[C@@H]12 [Mitomycin C] | 3.1 | 4.28 | 2.85 | 5.96 | 2.74 | 4.52 | 3.3 | 8.46 | 8.65 | 14.1 | 2.19 | 4.97 | 5.97 | 6.47 | 5.18 | 7.16 | 4.69 | 9.21 | 0 | 0 | 0.392 | 0.971 | 0 | 0 | 0 | 27.4
Cc1cc(Nc2nc(N[C@@H](C)c3ncc(F)cn3)ncc2Cl)[nH]n1 [AZD1480] | 0 | 0 | 0 | 0 | 0 | 0 | 0.841 | 0 | 1.53 | 0 | 0 | 0 | 0 | 0 | 0.912 | 0 | 7.5 | 0 | 0 | 0 | 0 | 1.75 | 0 | 0 | 0 | 0
CC(C)(C)c1nc(-c2cccc(NS(=O)(=O)c3c(F)cccc3F)c2F)c(-c2ccnc(N)n2)s1 [Dabrafenib] |  |  |  |  |  |  |  |  |  |  |  |  |  |  |  |  |  |  | 0 | 0 | 1.28 | 18.1 | 0 | 0 | 0 | 0
CC[C@H](CO)Nc1nc(NCc2ccccc2)c2ncn(C(C)C)c2n1 [Seliciclib] |  |  |  |  |  |  |  |  |  |  |  |  |  |  |  |  |  |  | 0 | 0 | 0 | 1.26 | 0 | 0 | 0 | 0
O=[N+]([O-])c1ccc2c(c1)S(=O)(=O)C=C2 [Stattic] |  |  |  |  |  |  |  |  |  |  |  |  |  |  |  |  |  |  | 2.06 | 19.7 | 2.09 | 18.1 | 11.6 | 6.1 | 2.97 | 19.8
O=C(CCCCCCC(=O)Nc1ccccc1)NO [Vorinostat] | 6.34 and 8.1 | 4.56 and 4.64 | 9.7 and 7.55 | 5.26 and 4.8 | 0.68 and 0.982 | 4.59 and 3.98 |  | 4.79 and 6.75 | 6.85 and 2.71 | 6.22 and 7.75 | 3.82 and 8.64 | 5.57 and 5.8 | 5.31 and 5.33 | 8.55 and 3.68 | 11.4 and 11.6 | 6.66 and 5.72 | 7.1 and 6.77 | 14.2 and 12.8 | 2.58 | 0 | 0 | 4.59 | 8.86 | 0 | 0 | 2.22
CC1(COc2ccc3c(c2)ncn3-c2ccc3cccc(N4CCC(N)CC4)c3n2)COC1 [Crenolanib] |  |  |  |  |  |  |  |  |  |  |  |  |  |  |  |  |  |  | 0 | 6.6 | 7.06 | 0 | 6.39 | 18.5 | 0 | 0
C=CCN(/C=C1/C(=O)O[C@H](COC)[C@@]2(C)C1=C(O)C(=O)C1=C2[C@H](OC(C)=O)C[C@]2(C)C(=O)CC[C@@H]12)CC=C [Sonolisib] |  |  |  |  |  |  |  |  |  |  |  |  |  |  |  |  |  |  | 0 | 2.28 | 0 | 0 | 0 | 0 | 0 | 
CN[C@@H](C)C(=O)N[C@H]1CN(C(=O)CC(C)C)CC[C@H]2CC[C@@H](C(=O)NC(c3ccccc3)c3ccccc3)N2C1=O [AT-406] |  |  |  |  |  |  |  |  |  |  |  |  |  |  |  |  |  |  |  | 22.9 | 4.26 | 0 | 25.5 | 0 | 0 | 0
CCn1c(C(=O)N(C2CC2)C2CC2)cc2c3c(ncn3C)c(Nc3cc(C)n(C)n3)nc21 |  |  |  |  |  |  |  |  |  |  |  |  |  |  |  |  |  |  | 0 | 0 | 0 | 0 | 0 | 0 | 0 | 1.81
CN(C)C(=N)NC(=N)N [Metformin] |  |  |  |  |  |  |  |  |  |  |  |  |  |  |  |  |  |  | 0 | 0 | 0 | 4.84 | 0 | 0 | 0 | 14.1
CC[C@H](CO)Nc1nc(NCc2ccccc2)c2ncn(C(C)C)c2n1 [Roscovitine] | 0 | 2.4 | 0 | 0 | 0 | 0 | 0 | 5.44 | 2.39 | 0 | 0 | 2.74 | 0 | 0.894 | 0 | 0 | 0 | 0 |  |  |  |  |  |  |  | 
Cc1nc(C(=O)NCC(=O)O)c(O)c2ccc(Oc3ccccc3)cc12 [FG-4592] |  |  |  |  |  |  |  |  |  |  |  |  |  |  |  |  |  |  | 0 | 0 | 0 | 0 | 0 | 0 | 0 | 0
Cn1cc(C2=C(c3cn(C4CCN(Cc5ccccn5)CC4)c4ccccc34)C(=O)NC2=O)c2ccccc21 [Enzastaurin] | 2.68 | 6.55 | 0 | 5.06 | 0 | 0 | 0 | 5.14 | 0 | 5.39 | 1.6 | 9.93 | 0 | 9.96 | 7.69 | 0 | 6.5 | 10.1 | 0 | 0 | 0 |  | 0 | 0 | 0 | 0
O=C(O)CNC(=O)c1c(O)c2ccccc2n(Cc2ccccc2)c1=O [IOX-2] |  |  |  |  |  |  |  |  |  |  |  |  |  |  |  |  |  |  | 0 | 0 | 3.99 | 0 | 0 | 0 | 1.5 | 0
CC(O)(CS(=O)(=O)c1ccc(F)cc1)C(=O)Nc1ccc(C#N)c(C(F)(F)F)c1 (stereo not given) [Bicalutamide] | 0 | 0 | 0 | 0 | 0 | 0 | 0 | 0 | 0 | 0 | 0 | 0 | 0 | 0 | 0 | 4.86e-06 | 0 | 0 | 0 | 0 | 0 | 0 | 0 | 0 | 0 | 
C=CCN(/C=C1/C(=O)O[C@H](COC)[C@@]2(C)C1=C(O)C(=O)C1=C2[C@H](OC(C)=O)C[C@]2(C)C(=O)CC[C@@H]12)CC=C [PX-866] | 5.22 | 0 | 2.93 | 0 | 0 | 0 | 0 | 3.95 | 0 | 5.15 | 3.65 | 3.48 | 5.75 | 0 | 0 | 8.51 | 0 | 9.05 |  |  |  |  |  |  |  | 
CCNC(=O)CCC/C=C\C[C@@H]1[C@@H](/C=C/[C@@H](O)CCc2ccccc2)[C@H](O)C[C@@H]1O [Bimatoprost] | 0 | 0 | 0 | 0 | 0 | 0 | 0 | 0 | 0 | 0 | 0 | 0 | 0 | 0 | 0 | 0 | 0 | 0 | 0 | 0 |  | 2.06 | 0 | 0 | 0 | 
CC(C)n1cnc2c(NCCc3ccc(O)cc3)nc(-c3csc4ccccc34)nc21 [StemRegenin 1] |  |  |  |  |  |  |  |  |  |  |  |  |  |  |  |  |  |  | 0 | 0 | 0 |  | 0 | 0 | 0 | 0
COc1c2occc2cc2ccc(=O)oc12 [Methoxsalen] | 0 | 0 | 0 | 1.28 | 0 | 0.682 | 0.558 | 0 | 0 | 0 | 0 | 0 | 0 | 0 | 1.68 | 0 | 0 | 0 |  |  |  |  |  |  |  | 

Source: the supplement of paper PMC4862054
